According to patent publication US20230355566A1, “POTENTIATION OF HELMINTH TREATMENT” (Elanco Tiergesundheit AG, priority 2019, published 2023):

Columns and labels:
[1] = tested on: Fasciola hepatica (Sunny Corner isolate, Fashep-66), immature stage; assay: Efficacy and synergy against immature stage of Fasciola hepatica in experimentally infected sheep (Example 3); type: in vivo; details: closantel 3.75 mg/kg, combination 40 and 3.75 mg/kg; for % Efficacy using arithmetic mean / % Efficacy using geometric mean: single oral treatment day 42, diamphenethide 40 mg/kg, vs untreated control; for Fluke Count, arithmetic mean / Fluke Count, geometric mean: single oral treatment day 42 after infection, diamphenethide 40 mg/kg, live fluke in liver day 91
Protocol: In the following examples, all animals were confirmed free of infection with F. hepatica and found clinically healthy by a veterinarian prior to enrollment in the study. Doses were administered orally from suitably sized disposable syringes. The fluke counts and body weights were log-transformed (after adding a constant of 1 to the fluke counts only) and the distribution of the transformed data checked to see if they satisfied the assumption of normal distribution. Differences between treatment groups were analyzed by analysis of variance methods (ANOVA), as the assumptions of normal distribution were satisfied for log-transformed fluke count and log-transformed bodyweight, as well as for (untransformed) fluke measurements. Arithmetic […]), geometric […]), median and ranges were summarized for fluke counts, fluke measurements and bodyweight. A constant of one was applied for calculation of geometric means of fluke counts. The percentage efficacy for each treated group was calculated as follows: […] where FCC is the arithmetic mean fluke count of the control group and FCT is the arithmetic mean fluke count of the treated group. […] Note that expected synergy is defined as: […] Administered Concurrently with Closantel Against the Immature Stage of Fasciola hepatica Infections in Sheep This study was to assess the efficacy of […] (40 mg/kg) given concurrently with closantel (3.75 mg/kg), […] alone (40 mg/kg), and closantel alone (3.75 mg/kg) against F. hepatica in sheep (3-4 month Merino lambs) with treatment on day 42. This was a controlled, blinded, randomized study. On day 0, the sheep were experimentally infected with a single isolate of approximately 200 Sunny Corner ([…]-66) isolate F. hepatica metacercariae. The required number of […] up in carboxymethyl cellulose. Syringes were checked post-infection for retained […]. The infection was administered orally and each infective dose was followed by water administered orally. The sheep were randomized into treatment groups on the basis of day 41 body weight and allocated to groups as denoted in Table 3.1. Body weight was determined one day prior to treatment. All treatments were measured by volume and rounded to the nearest 0.1 mL. On day 42, and before feeding, the individual animals were treated once only with the treatment in Table 3.1. Once the animals had been treated they were returned to their pens and fed within one hour. Untreated control animals were also fed at this time. The liver with gall bladder and bile ducts intact were recovered from each animal on day 91 and processed for F. hepatica counts. The assessment of efficacy was based on the number of live fluke removed from the liver.

liver flukes = details: cited from earlier work
[2] = deacylation to DAMD; cited from earlier work
[3] = tested on: Fasciola hepatica (Oberon isolate, Fashep-65), early immature stage; assay: Efficacy against early immature stage of Fasciola hepatica in experimentally infected sheep (Example 2); type: in vivo; details: closantel 10 mg/kg, combination 60 and 10 mg/kg
Protocol: In the following examples, all animals were confirmed free of infection with F. hepatica and found clinically healthy by a veterinarian prior to enrollment in the study. Doses were administered orally from suitably sized disposable syringes.
The fluke counts and body weights were log-transformed (after adding a constant of 1 to the fluke counts only) and the distribution of the transformed data checked to see if they satisfied the assumption of normal distribution. Differences between treatment groups were analyzed by analysis of variance methods (ANOVA), as the assumptions of normal distribution were satisfied for log-transformed fluke count and log-transformed bodyweight, as well as for (untransformed) fluke measurements.
Arithmetic means (Amean), geometric means (Gmean), median and ranges were summarized for fluke counts, fluke measurements and bodyweight. A constant of one was applied for calculation of geometric means of fluke counts.
The percentage efficacy for each treated group was calculated as follows:
% Efficacy=100×(FCC−FCT)/FCC
where FCC is the arithmetic mean fluke count of the control group and FCT is the arithmetic mean fluke count of the treated group. The formula was also applied using mean geometric fluke counts; these were calculated using log transformed data with 1 added as a constant to each fluke count and then subtracted following transformation.
Efficacy of Diamphenethide in Combination with Closantel in Oral Formulations Against the Early Immature Stage of Fasciola hepatica in Sheep
This study was to assess the efficacy of diamphenethide (60 mg/kg) given concurrently with closantel (10 mg/kg), diamphenethide alone (60 mg/kg), and closantel alone (10 mg/kg) against F. hepatica in sheep with treatment on day 14. This was a controlled, blinded, randomized study using […] Merino lambs.
On day 0, the sheep were experimentally infected with a target of 87 Oberon isolate (Fashep-65) F. hepatica metacercariae. The required number of metacercariae were prepared for infection in a water and 4% carboxymethylcellulose solution. Each infective dose was followed by water administered orally.
The sheep were randomized into treatment groups on the basis of day 11 body weight and allocated to groups as denoted in Table 2.1.
Body weight was determined on day 11 and doses were measured by volume and rounded to the nearest 0.1 mL. On day 14, and before feeding, the individual animals were treated once only with the Treatment in Table 2.1. Once the animals had been treated they were returned to their pens and fed within one hour. Untreated control animals were also fed at this time.
The liver with gall bladder and common bile duct intact were recovered on day 91 or 92 from each animal and processed for F. hepatica counts. […]

[4] = single oral treatment day 14, diamphenethide 60 mg/kg, vs untreated control
[5] = single oral treatment day 14 after infection, diamphenethide 60 mg/kg, live fluke in liver day 91 or 92

Row | Structure (SMILES) | % Efficacy using arithmetic mean [1] | % Efficacy using geometric mean [1] | Fluke Count, arithmetic mean [1] | Fluke Count, geometric mean [1] | Activity against early immature flukes (liver flukes; flukes up to 6 weeks of age) | Activity against flukes as they develop to maturity (liver flukes; maturing flukes) | Metabolism [2] | % Efficacy using arithmetic mean [3, 4] | % Efficacy using geometric mean [3, 4] | Fluke Count, arithmetic mean [3, 5] | Fluke Count, geometric mean [3, 5]
1 | Cc1cc(C(C#N)c2ccc(Cl)cc2)c(Cl)cc1NC(=O)c1cc(I)cc(I)c1O (stereo not drawn) [Closantel, N-[5-chloro-4-[(4-chlorophenyl)cyanomethyl]-2-methylphenyl]-2-hydroxy-3,5-diiodobenzamide] | 40.1% | 40.7% | 54.0 | 51.6 | – | – | – | – | – | – | –
2 | CC(=O)Nc1ccc(OCCOCCOc2ccc(NC(C)=O)cc2)cc1 [Diamphenethide, N-[4-[2-[2-(4-acetamidophenoxy)ethoxy]ethoxy]phenyl]acetamide] | 36.1% | 41.5% | 57.6 | 50.9 | highly effective | progressively lower activity | rapidly metabolized by deacylation | 98.3% | 98.4% | 0.3 | 0.3
